{"source": "paper PMC12909347", "about": "“Disconnect between in vitro and in vivo efficacy of the MPS1 inhibitor NTRC 0066-0 against glioblastoma” (Cellular Oncology, 2026)", "key": {"P-gp": {"system": "P-gp", "assay": "Brain penetration in Abcb1a/b-/- mice", "assay_type": "in vivo", "conditions": "1 h after 5 mg/kg i.v.", "procedure": "The pharmacokinetics of NTRC 0066-0 were analyzed in wild-type (WT), Abcb1a/b^−/−, Abcg2^−/−, Abcb1a/b^−/−;Abcg2^−/− and Abcb1a/b^−/−;Abcg2^−/−;Abcc4^−/− FVB mice. All knockout mice strains have been developed at the Netherlands Cancer Institute. For i.v. administration, NTRC0066-0 was formulated in DMSO: Cremophor EL: saline (1:1:8 v/v) and injected at a dose of 5 mg/kg. For i.p and oral administration, NTRC0066-0 was administered at 5, 10 or 20 mg/kg as indicated. Serial blood sampling was done by tail vein bleeding at specific time points. At terminal time points, blood was drawn by cardiac puncture followed by tissue collection. Plasma was obtained from whole blood by centrifugation (5 min, 5,000 rpm, 4 °C) and tissues were weighed and homogenized using a FastPrep®-24 (MP-Biomedicals, NY) in 1% (w/v) bovine serum albumin (Sigma-Aldrich) in water.\nNTRC 0066-0 was extracted from in vitro and in vivo samples using liquid–liquid extraction with diethyl ether. Another MPS-1 inhibitor, Compound 5 (Cpd-5), was added to the samples as an internal standard. The dried organic phase was reconstituted in 30% methanol in water (v/v). Samples were measured using an LC-MS/MS system comprising an UltiMate 3000 LC Systems (Dionex, Sunnyvale, CA) and an API 4000 mass spectrometer (Sciex, Framingham, MA). Samples were injected on to a Securityguard C18 pre-column (Phenomenex, Utrecht, The Netherlands) connected to a ZORBAX Extend-C18 column (Agilent, Santa Clara, CA). Elution was done at a flow rate of 0.2 mL/min using a 5 min gradient from 20% to 95% B (mobile phase A was 0.1% HCOOH in water (v/v) and mobile phase B was methanol). 95% B was maintained for 3 min followed by re-equilibration at 20% B. Multiple reaction monitoring parameters were 566.2/391.4 (NTRC0066-0) and 581.6/397.0 (internal standard). Analyst® 1.6.2 software (Sciex) was used for system control and data analysis."}, "[1]": {"assay": "Tolerability of oral dosing schedules in Abcb1a/b;Abcg2-/- mice", "assay_type": "in vivo"}, "GSC556": {"system": "GSC556", "assay": "Cell survival assay, glioma stem cell line", "assay_type": "cell-based, murine", "conditions": "GSC556 (EgfrvIII;p15Ink4b/p16Ink4a-/-;Pten-/-;Tp53-/-), Fig. 1C", "source_text": "(§1) All cell lines were authenticated using STR profiling. The serum-cultured GBM cell lines U87 (RRID: CVCL_0022) and HS683 (RRID: CVCL_0844) were purchased from the ATCC (Manassas, VA), T98G (RRID: CVCL_0556) and LN-428 (RRID: CVCL_3959) cells were kindly provided by Dr. Conchita Vens (Netherlands Cancer Institute, Amsterdam, The Netherlands), E98 cells were obtained from Prof. Dr. William Leenders (Radboud University Medical Center, Nijmegen, The Netherlands), and LN-751 (RRID: CVCL_3964) were generously made available by Prof. Dr. Monika Hegi (Centre Hospitalier Universitaire Vaudois, Lausanne, Switzerland). GSC lines were isolated from murine tumors that were generated by stereotactic injection of Lenti–Cre vector in the striatum of Egfr^vIII;p15^Ink4b/p16^Ink4aF/F (GSC750), Egfr^vIII;p15^Ink4b/p16^Ink4aF/F;Pten^F/F (GSC578) or Egfr^vIII;p15^Ink4b/p16^Ink4aF/F;Pten^F/F;Tp53^F/F (GSC556) mice, as previously described.\n(§2) Wells were pre-coated with poly-ornithine (15 µg/ml for 3 h at room temperature) and subsequently with laminin (7.5 µg/ml for 1 h at 37 °C) prior to seeding GSCs to make them adherent without inducing differentiation. […] Cells were plated in 24-wells plates at low cell densities (2,000–10,000 cells/well) and exposed to different concentrations of NTRC0066-0 24 h later. NTRC0066-0 was dissolved in DMSO (Sigma-Aldrich) for in vitro experiments and final DMSO concentrations never exceeded 0.1%. When untreated wells were confluent (approximately 6–10 days after seeding, dependent on the cell line), cells were fixed and stained using a solution containing 0.5% crystal violet (w/v; Sigma-Aldrich) and 6% glutaraldehyde (v/v; Honeywell, Morris Plains, NJ). Plates were imaged using a Chemi-Doc XRS+ (Bio-rad, Hercules, CA) and analyzed using the Colony Area plugin of ImageJ [24]. IC50 curves were fitted and plotted using the ‘log(inhibitor) vs. normalized response – Variable slope’ fitting procedure of GraphPad Prism v10.3 (GraphPad Software, La Jolla, CA). Monotherapy curves were corrected for untreated controls."}, "GSC750": {"system": "GSC750", "assay": "Cell survival assay, glioma stem cell line", "assay_type": "cell-based, murine", "conditions": "GSC750 (EgfrvIII;p15Ink4b/p16Ink4a-/-), Fig. 1C", "source_text": "as §1, §2"}, "GSC578": {"system": "GSC578", "assay": "Cell survival assay, glioma stem cell line", "assay_type": "cell-based, murine", "conditions": "GSC578 (EgfrvIII;p15Ink4b/p16Ink4a-/-;Pten-/-), Fig. 1C", "source_text": "as §1, §2"}, "LN-751": {"system": "LN-751", "assay": "Cell survival assay (crystal violet), continuous exposure", "assay_type": "cell-based, human", "conditions": "LN-751, continuous exposure, Fig. 1A", "procedure": "as §2"}, "LN-428": {"system": "LN-428", "assay": "Cell survival assay (crystal violet), continuous exposure", "assay_type": "cell-based, human", "conditions": "LN-428, continuous exposure, Fig. 1A", "procedure": "as §2"}, "T98G": {"system": "T98G", "assay": "Cell survival assay (crystal violet), continuous exposure", "assay_type": "cell-based, human", "conditions": "Fig. 1A", "procedure": "as §2"}, "U87": {"system": "U87", "assay": "Cell survival assay (crystal violet), continuous exposure", "assay_type": "cell-based, human", "conditions": "Fig. 1A", "procedure": "as §2"}, "GBM cells": {"system": "GBM cells", "assay": "Incucyte caspase-3/7 apoptosis assay", "assay_type": "cell-based, human", "conditions": "three serum-cultured GBM cell lines, increasing concentrations", "procedure": "For the apoptosis assay, cells were plated in a 96-wells plate at low cell densities (500–1000 cells/well) and allowed to adhere overnight under standard culture conditions (37 °C, 5% CO₂). After 24 h, cells were exposed to different concentrations of NTRC0066-0. Apoptosis was measured using the Incucyte® Caspase-3/7 Dye for Apoptosis (Sartorius AG, Göttingen, Germany), which was added at a final concentration of 2.5 µM. As a positive control for the induction of Caspase 3/7-mediated apoptosis, cells were treated with a combination of S63845 and navitoclax (final concentrations 3 µM and 1.5 µM, respectively). Apoptotic cell death was assessed in real time with the Incucyte® S3 system (Sartorius AG). The Incucyte® was configured to capture phase-contrast images using a 10x objective lens. Data were collected and analyzed using the Incucyte® S3 software. Fluorescence signal confluence was quantified and normalized to the total phase-contrast confluence in each well to take variations in cell density into account. Curves were plotted using GraphPad Prism v10.3 (GraphPad Software)."}}}
{"compound": "CCc1cccc(CC)c1NC(=O)c1ccn2c1CCc1cnc(Nc3ccc(N4CCN(C)CC4)cc3OC)nc1-2", "note": "[NTRC 0066-0]", "values": [{"measurement": "Brain concentration compared to WT mice", "setting": "P-gp", "result": "markedly increased"}, {"measurement": "Brain-plasma ratio compared to WT mice", "setting": "P-gp", "result": "markedly increased"}, {"measurement": "Plasma concentration compared to WT mice", "setting": "P-gp", "result": "similar"}, {"measurement": "Tolerability of schedule", "setting": "[1]; 5 mg/kg p.o. morning + 10 mg/kg p.o. about 8 h later, 7 consecutive days", "result": "could safely administer"}, {"measurement": "Tolerability of schedule", "setting": "[1]; 20 mg/kg p.o. every other day for 11 days (q.2d.x11d)", "result": "could safely be given"}, {"measurement": "IC50", "setting": "GSC556", "result": 20, "unit": "nM"}, {"measurement": "IC50", "setting": "GSC750", "result": 25, "unit": "nM"}, {"measurement": "IC50", "setting": "GSC578", "result": 46, "unit": "nM"}, {"measurement": "IC50", "setting": "LN-751", "result": 37, "unit": "nM"}, {"measurement": "IC50", "setting": "LN-428", "result": 39, "unit": "nM"}, {"measurement": "IC50", "setting": "T98G", "result": 18, "unit": "nM"}, {"measurement": "IC50", "setting": "U87", "result": 31, "unit": "nM"}, {"measurement": "Induction of apoptosis (caspase 3/7 activation)", "setting": "GBM cells", "result": "did not induce apoptosis"}]}
